{"source": "patent US11173145B2", "about": "“Compounds useful as inhibitors of indoleamine 2,3-dioxygenase and/or tryptophan dioxygenase” (Board of Regents, The University of Texas System, priority 2017, dated 2021)", "key": {"[1]": {"target": "T1, IDO1 (Homo sapiens, UniProt P14902)", "T1 construct": "endogenous in cells; host or cells: HeLa cells (ATCC), IFNgamma-induced", "T1 sequence (P14902 whole entry)": "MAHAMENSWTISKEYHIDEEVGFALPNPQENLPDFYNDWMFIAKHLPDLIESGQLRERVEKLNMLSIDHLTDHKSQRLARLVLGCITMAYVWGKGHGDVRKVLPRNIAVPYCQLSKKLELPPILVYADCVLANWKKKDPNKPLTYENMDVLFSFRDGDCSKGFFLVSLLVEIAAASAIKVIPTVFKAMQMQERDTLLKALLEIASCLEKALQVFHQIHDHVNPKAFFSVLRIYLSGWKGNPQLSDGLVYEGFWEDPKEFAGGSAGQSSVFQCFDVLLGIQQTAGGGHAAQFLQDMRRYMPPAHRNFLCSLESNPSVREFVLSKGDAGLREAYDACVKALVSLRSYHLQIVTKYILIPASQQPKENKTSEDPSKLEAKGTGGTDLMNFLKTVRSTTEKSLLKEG", "experiment": "IDO1 cell-based assay (HeLa cells, IFNgamma-induced, N-formylkynurenine/L-tryptophan by RFMS)", "settings": "10 ng/mL IFNgamma, 24 hours", "in_short": "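HeLa cells stimulated with 10 ng/mL IFNgamma and exposed to compound (0.5% DMSO final) for 24 h at 37 °C. Conditioned media deproteinized, then N-formylkynurenine and L-tryptophan quantified by RapidFire MS with deuterated tryptophan internal standard; IC50 by curve fitting. Viability checked by CellTiter-Glo.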"}, "[2]": {"target": "T2, mouse IDO1 (Mus musculus, UniProt P28776)", "T2 construct": "The murine PANC02 pancreatic ductal adenocarcinoma cell line was routinely maintained in DMEM media; endogenous in cells; host or cells: PANC02 murine pancreatic ductal adenocarcinoma cells, induced with mouse IFNgamma", "T2 sequence (P28776 whole entry)": "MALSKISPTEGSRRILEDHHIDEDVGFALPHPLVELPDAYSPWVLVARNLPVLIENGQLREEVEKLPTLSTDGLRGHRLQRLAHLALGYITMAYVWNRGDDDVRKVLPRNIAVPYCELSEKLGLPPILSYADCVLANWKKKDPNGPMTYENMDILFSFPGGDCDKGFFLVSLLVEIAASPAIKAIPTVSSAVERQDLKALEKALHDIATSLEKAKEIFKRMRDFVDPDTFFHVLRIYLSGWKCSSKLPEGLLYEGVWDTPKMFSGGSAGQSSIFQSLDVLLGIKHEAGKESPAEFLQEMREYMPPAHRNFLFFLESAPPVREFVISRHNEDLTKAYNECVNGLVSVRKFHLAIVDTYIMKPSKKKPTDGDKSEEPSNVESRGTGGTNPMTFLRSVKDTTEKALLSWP", "experiment": "Mouse IDO1 cell-based assay (PANC02 cells, mouse IFNgamma-induced, N-formylkynurenine/L-tryptophan by RFMS)", "settings": "30 ng/mL mouse IFNgamma, 48 hours"}}}
{"smiles": "CCC(NC(=O)c1ccc(Cl)cc1)[C@H]1[C@@H]2C[C@@H](n3cc(C4CN(C(=O)OC(C)(C)C)C4)nn3)C[C@@H]21", "note": "(stereo partly drawn) [Compound 233, tert-butyl 3-(1-((1R,3s,5S,6r)-6-(1-(4-chlorobenzamido)propyl)bicyclo[3.1.0]hexan-3-yl)-1H-1,2,3-triazol-4-yl)azetidine-1-carboxylate]", "values": [{"measurement": "IC50", "setting": "[1]", "value": "2000 to 5000", "unit": "nM"}, {"measurement": "IC50", "setting": "[2]", "value": "> 5000", "unit": "nM"}]}
{"smiles": "CCC(NC(=O)c1ccc(Cl)cc1)[C@H]1[C@@H]2C[C@@H](Nc3ncc(F)cc3[N+](=O)[O-])C[C@@H]21", "note": "(stereo partly drawn) [Compound 236, 4-chloro-N-(1-((1R,3s,5S,6r)-3-((5-fluoro-3-nitropyridin-2-yl)amino)bicyclo[3.1.0]hexan-6-yl)propyl)benzamide]", "values": [{"measurement": "IC50", "setting": "[1]", "value": "< 200", "unit": "nM"}, {"measurement": "IC50", "setting": "[2]", "value": "500 to 2000", "unit": "nM"}]}
{"smiles": "CCC(NC(=O)c1ccc(Cl)cc1)[C@H]1[C@@H]2C[C@@H](n3cc(C4CNC4)nn3)C[C@@H]21", "note": "(stereo partly drawn) [Compound 237, N-(1-((1R,3s,5S,6r)-3-(4-(azetidin-3-yl)-1H-1,2,3-triazol-1-yl)bicyclo[3.1.0]hexan-6-yl)propyl)-4-chlorobenzamide]", "values": [{"measurement": "IC50", "setting": "[1]", "value": "> 5000", "unit": "nM"}, {"measurement": "IC50", "setting": "[2]", "value": "> 5000", "unit": "nM"}]}
{"smiles": "CCC(NC(=O)c1ccc(Cl)cc1)[C@H]1[C@@H]2C[C@@H](n3cc(N(C)C)nn3)C[C@@H]21", "note": "(stereo partly drawn) [Compound 238, 4-chloro-N-(1-((1R,3s,5S,6r)-3-(4-(dimethylamino)-1H-1,2,3-triazol-1-yl)bicyclo[3.1.0]hexan-6-yl)propyl)benzamide]", "values": [{"measurement": "IC50", "setting": "[1]", "value": "< 200", "unit": "nM"}, {"measurement": "IC50", "setting": "[2]", "value": "< 500", "unit": "nM"}]}
{"smiles": "CCC(NC(=O)c1ccc(Cl)cc1)[C@H]1[C@@H]2C[C@@H](n3cc(N)nn3)C[C@@H]21", "note": "(stereo partly drawn) [Compound 239, N-(1-((1R,3s,5S,6r)-3-(4-amino-1H-1,2,3-triazol-1-yl)bicyclo[3.1.0]hexan-6-yl)propyl)-4-chlorobenzamide]", "values": [{"measurement": "IC50", "setting": "[1]", "value": "2000 to 5000", "unit": "nM"}, {"measurement": "IC50", "setting": "[2]", "value": "> 5000", "unit": "nM"}]}
{"smiles": "COCc1cn([C@@H]2C[C@@H]3[C@H](C2)[C@H]3C(C)NC(=O)c2ccc(C#N)cc2)nn1", "note": "(stereo partly drawn) [Compound 242, 4-cyano-N-(1-((1R,3s,5S,6r)-3-(4-(methoxymethyl)-1H-1,2,3-triazol-1-yl)bicyclo[3.1.0]hexan-6-yl)ethyl)benzamide]", "values": [{"measurement": "IC50", "setting": "[1]", "value": "200 to 2000", "unit": "nM"}, {"measurement": "IC50", "setting": "[2]", "value": "> 5000", "unit": "nM"}]}
{"smiles": "CCC(NC(=O)c1ccc(Cl)cc1)[C@H]1[C@@H]2C[C@@H](Nc3cc(F)cc(F)c3[N+](=O)[O-])C[C@@H]21", "note": "(stereo partly drawn) [Compound 243, 4-chloro-N-(1-((1R,3s,5S,6r)-3-((3,5-difluoro-2-nitrophenyl)amino)bicyclo[3.1.0]hexan-6-yl)propyl)benzamide]", "values": [{"measurement": "IC50", "setting": "[1]", "value": "200 to 2000", "unit": "nM"}, {"measurement": "IC50", "setting": "[2]", "value": "500 to 2000", "unit": "nM"}]}
{"smiles": "CCC(NC(=O)c1ccc(Cl)cc1)[C@H]1[C@@H]2C[C@@H](Nc3c([N+](=O)[O-])ccc(F)c3F)C[C@@H]21", "note": "(stereo partly drawn) [Compound 244, 4-chloro-N-(1-((1R,3s,5S,6r)-3-((2,3-difluoro-6-nitrophenyl)amino)bicyclo[3.1.0]hexan-6-yl)propyl)benzamide]", "values": [{"measurement": "IC50", "setting": "[1]", "value": "< 200", "unit": "nM"}, {"measurement": "IC50", "setting": "[2]", "value": "500 to 2000", "unit": "nM"}]}
{"smiles": "O=C(NCc1ccc(Cl)cc1)[C@@H]1[C@@H]2CN(c3ncnc4ccc(F)cc34)C[C@@H]21", "note": "[Compound 249, (1R,5S,6s)-N-(4-chlorobenzyl)-3-(6-fluoroquinazolin-4-yl)-3-azabicyclo[3.1.0]hexane-6-carboxamide]", "values": [{"measurement": "IC50", "setting": "[1]", "value": "> 5000", "unit": "nM"}, {"measurement": "IC50", "setting": "[2]", "value": "> 5000", "unit": "nM"}]}
{"smiles": "O=C(Nc1ccc(Cl)cc1)[C@@H]1[C@@H]2CN(c3ncnc4ccc(F)cc34)C[C@@H]21", "note": "[Compound 250, (1R,5S,6s)-N-(4-chlorophenyl)-3-(6-fluoroquinazolin-4-yl)-3-azabicyclo[3.1.0]hexane-6-carboxamide]", "values": [{"measurement": "IC50", "setting": "[1]", "value": "> 5000", "unit": "nM"}, {"measurement": "IC50", "setting": "[2]", "value": "> 5000", "unit": "nM"}]}
{"smiles": "O=C(NCc1ccc(Cl)cc1)[C@H]1[C@@H]2CN(c3ncnc4ccc(F)cc34)C[C@@H]21", "note": "[Compound 251, (1R,5S,6r)-N-(4-chlorobenzyl)-3-(6-fluoroquinazolin-4-yl)-3-azabicyclo[3.1.0]hexane-6-carboxamide]", "values": [{"measurement": "IC50", "setting": "[1]", "value": "> 5000", "unit": "nM"}, {"measurement": "IC50", "setting": "[2]", "value": "> 5000", "unit": "nM"}]}
{"smiles": "O=C(Nc1ccc(Cl)cc1)[C@H]1[C@@H]2CN(c3ncnc4ccc(F)cc34)C[C@@H]21", "note": "[Compound 252, (1R,5S,6r)-N-(4-chlorophenyl)-3-(6-fluoroquinazolin-4-yl)-3-azabicyclo[3.1.0]hexane-6-carboxamide]", "values": [{"measurement": "IC50", "setting": "[1]", "value": "> 5000", "unit": "nM"}, {"measurement": "IC50", "setting": "[2]", "value": "2000 to 5000", "unit": "nM"}]}
{"smiles": "CCC(NC(=O)c1ccc(Cl)cc1)[C@H]1[C@@H]2C[C@@H](Oc3ncnc4cc(Cl)ccc34)C[C@@H]21", "note": "(stereo partly drawn) [Compound 253, 4-chloro-N-(1-((1R,3s,5S,6r)-3-((7-chloroquinazolin-4-yl)oxy)bicyclo[3.1.0]hexan-6-yl)propyl)benzamide]", "values": [{"measurement": "IC50", "setting": "[1]", "value": "< 200", "unit": "nM"}, {"measurement": "IC50", "setting": "[2]", "value": "2000 to 5000", "unit": "nM"}]}
{"smiles": "CCC(NC(=O)c1ccc(Cl)cc1)[C@@H]1[C@H]2C=C(c3cncc(C(F)(F)F)c3)C[C@H]21", "note": "(stereo partly drawn) [Compound 254, 4-chloro-N-(1-((1R,5R,6S)-3-(5-(trifluoromethyl)pyridin-3-yl)bicyclo[3.1.0]hex-2-en-6-yl)propyl)benzamide]", "values": [{"measurement": "IC50", "setting": "[1]", "value": "< 200", "unit": "nM"}, {"measurement": "IC50", "setting": "[2]", "value": "< 500", "unit": "nM"}]}
{"smiles": "CCC(NC(=O)c1ccc(Cl)cc1)[C@@H]1[C@H]2C=C(c3ncnc4cc(F)ccc34)C[C@H]21", "note": "(stereo partly drawn) [Compound 255, 4-chloro-N-(1-((1R,5R,6S)-3-(7-fluoroquinazolin-4-yl)bicyclo[3.1.0]hex-2-en-6-yl)propyl)benzamide]", "values": [{"measurement": "IC50", "setting": "[1]", "value": "200 to 2000", "unit": "nM"}, {"measurement": "IC50", "setting": "[2]", "value": "2000 to 5000", "unit": "nM"}]}
{"smiles": "CCC(NC(=O)c1ccc(Cl)cc1)[C@H]1[C@@H]2C[C@@H](n3cc(NC(C)=O)nn3)C[C@@H]21", "note": "(stereo partly drawn) [Compound 256, N-(1-((1R,3s,5S,6r)-3-(4-acetamido-1H-1,2,3-triazol-1-yl)bicyclo[3.1.0]hexan-6-yl)propyl)-4-chlorobenzamide]", "values": [{"measurement": "IC50", "setting": "[1]", "value": "> 5000", "unit": "nM"}, {"measurement": "IC50", "setting": "[2]", "value": "> 5000", "unit": "nM"}]}
{"smiles": "CCC(NC(=O)c1ccc(Cl)cc1)[C@H]1[C@@H]2C[C@@H](n3cc(C4CN(C(C)=O)C4)nn3)C[C@@H]21", "note": "(stereo partly drawn) [Compound 257, N-(1-((1R,3s,5S,6r)-3-(4-(1-acetylazetidin-3-yl)-1H-1,2,3-triazol-1-yl)bicyclo[3.1.0]hexan-6-yl)propyl)-4-chlorobenzamide]", "values": [{"measurement": "IC50", "setting": "[1]", "value": "> 5000", "unit": "nM"}, {"measurement": "IC50", "setting": "[2]", "value": "> 5000", "unit": "nM"}]}
{"smiles": "CCC(NC(=O)c1ccc(Cl)cc1)[C@H]1[C@@H]2C[C@@H](n3ncnc3C3CC3)C[C@@H]21", "note": "(stereo partly drawn) [Compound 258, 4-chloro-N-(1-((1R,3s,5S,6r)-3-(5-cyclopropyl-1H-1,2,4-triazol-1-yl)bicyclo[3.1.0]hexan-6-yl)propyl)benzamide]", "values": [{"measurement": "IC50", "setting": "[1]", "value": "200 to 2000", "unit": "nM"}, {"measurement": "IC50", "setting": "[2]", "value": "2000 to 5000", "unit": "nM"}]}
{"smiles": "CCC(NC(=O)c1ccc(Cl)cc1)[C@H]1[C@@H]2C[C@@H](n3cnc(C4CC4)c3)C[C@@H]21", "note": "(stereo partly drawn) [Compound 261, 4-chloro-N-(1-((1R,3s, 5S, 6r)-3-(4-cyclopropyl-1H-imidazol-1-yl)bicyclo[3.1.0]hexan-6-yl)propyl)benzamide]", "values": [{"measurement": "IC50", "setting": "[1]", "value": "< 200", "unit": "nM"}, {"measurement": "IC50", "setting": "[2]", "value": "500 to 2000", "unit": "nM"}]}
